Assay results reported in patent US4730063A, “Alkali metal 2,5-dihydro-3-ethoxycarbonyl-2-[(substituted phenyl)amino]-4-furanyloxides” (Pennwalt Corportion, priority 1986, dated 1988).

Test system: carrageenan-induced rat paw edema
Experiment: carrageenan-induced rat paw edema assay
Type: in vivo
Conditions: oral doses of 50 mg/kg

CCOC(=O)C1=C(O)COC1=Nc1ccccc1 [Example 1, potassium 2,5-dihydro-3-ethoxycarbonyl-2-(phenylimino)-4-furanyloxide]
inhibition of edema: 31%

CCOC(=O)C1=C(O)COC1=Nc1cccc([N+](=O)[O-])c1 [Example 4, potassium 2,5-dihydro-3-ethoxycarbonyl-2-[(3-nitrophenyl)imino]-4-furanyloxide]
inhibition of edema: 28.3%
